Assay results published in patent US20230080054A1 (ILDONG PHARMACEUTICAL CO., LTD., priority 2021, published 2023).

Target: T1, human ANO6 (Homo sapiens, UniProt Q4KMQ2)
T1 construct: expressed in transfected cells
T1 sequence (Q4KMQ2 1-931 isoform Q4KMQ2-2): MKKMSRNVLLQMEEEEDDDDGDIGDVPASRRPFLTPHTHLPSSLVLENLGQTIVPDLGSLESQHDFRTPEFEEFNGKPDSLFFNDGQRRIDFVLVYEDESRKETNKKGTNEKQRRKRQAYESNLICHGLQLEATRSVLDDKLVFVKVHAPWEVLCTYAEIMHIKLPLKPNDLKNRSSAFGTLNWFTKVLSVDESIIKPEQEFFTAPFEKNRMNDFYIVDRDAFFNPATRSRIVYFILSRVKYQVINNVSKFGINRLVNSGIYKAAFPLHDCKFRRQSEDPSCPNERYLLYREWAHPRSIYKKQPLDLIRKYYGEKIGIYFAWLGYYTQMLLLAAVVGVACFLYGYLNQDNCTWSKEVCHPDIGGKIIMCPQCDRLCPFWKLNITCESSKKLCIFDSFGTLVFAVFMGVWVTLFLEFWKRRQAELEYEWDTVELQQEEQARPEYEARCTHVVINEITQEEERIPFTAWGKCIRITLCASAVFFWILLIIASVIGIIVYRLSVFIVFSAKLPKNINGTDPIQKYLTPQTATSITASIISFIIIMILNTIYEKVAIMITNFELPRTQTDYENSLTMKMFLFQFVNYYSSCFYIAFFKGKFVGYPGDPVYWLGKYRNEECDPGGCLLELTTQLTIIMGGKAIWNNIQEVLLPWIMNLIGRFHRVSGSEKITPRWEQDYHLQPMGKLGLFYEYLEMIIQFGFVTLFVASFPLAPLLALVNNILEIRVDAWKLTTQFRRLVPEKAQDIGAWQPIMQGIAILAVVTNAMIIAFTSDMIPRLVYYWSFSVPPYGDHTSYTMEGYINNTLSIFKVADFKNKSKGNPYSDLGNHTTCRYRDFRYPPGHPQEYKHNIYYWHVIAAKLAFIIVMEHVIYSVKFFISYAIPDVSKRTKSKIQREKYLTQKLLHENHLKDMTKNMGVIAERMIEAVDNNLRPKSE
Experiment: LACT C2 assay (phosphatidylserine scramblase function assay)
Type: cell-based
Conditions: FRT cells expressing human ANO6, 10 μM ionomycin; for inhibition at 0.1 µM: test compound 100 nM, read-out: Inhibition Level 100 nM; for inhibition at 1 µM: test compound 1 μM, read-out: Inhibition Level 1 μM
In short: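 Inhibition was normalised between ionomycin-only (0%) and untreated (100%) wells, with triplicates averaged. Readout was background-corrected Lact-C2-GFP (500 nM) fluorescence from imaged cells. The cells were FRT cells stably expressing human ANO6, given compound at 1% DMSO for 10 min before a 10 min 10 μM ionomycin challenge.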

Row | Structure (SMILES) | inhibition at 0.1 µM | inhibition at 1 µM
1 | O=C(Nc1ccc(Cl)c(Cl)c1)c1cccc(Nc2ncc(-c3cccc(F)c3)cn2)c1 [Compound 118, N-(3,4-dichlorophenyl)-3-{[5-(3-fluorophenyl)pyrimidin-2-yl]amino}benzamide] | ≥ 60% | ≥ 60%
2 | O=C(Nc1cccc(F)c1)c1cccc(Nc2ccc(-c3cccc(F)c3)cn2)c1 [Compound 122, N-(3-fluorophenyl)-3-{[5-(3-fluorophenyl)pyridin-2-yl]amino}benzamide] | ≥ 60% | ≥ 60%
3 | O=C(NCCc1cccc(C(F)(F)F)c1)c1cccc(Nc2ncc(-c3cccc(F)c3)cn2)c1 [Compound 79, 3-{[5-(3-fluorophenyl)pyrimidin-2-yl]amino}-N-{2-[3-(trifluoromethyl)phenyl]ethyl}benzamide] | ≥ 60% | ≥ 60%
4 | O=C(N[C@@H]1C[C@H]1c1ccccc1)c1cccc(Nc2ccc(-c3cccc(F)c3)cn2)c1 [Compound 123, 3-{[5-(3-fluorophenyl)pyridin-2-yl]amino}-N-[(1R,2S)-2-phenylcyclopropyl]benzamide] | ≥ 60% | ≥ 60%
5 | O=C(N[C@@H]1C[C@H]1c1ccccc1)c1cccc(Nc2ncc(-c3cccc(F)c3)cn2)c1 [Compound 119, 3-{[5-(3-fluorophenyl)pyrimidin-2-yl]amino}-N-[(1R,2S)-2-phenylcyclopropyl]benzamide] | ≥ 60% | ≥ 60%
6 | O=C(N[C@@H]1C[C@H]1c1ccccc1)c1cccc(Nc2ccc(-c3ccccc3)nn2)c1 [Compound 68, N-[(1R,2S)-2-phenylcyclopropyl]-3-[(6-phenylpyridazin-3-yl)amino]benzamide] | ≥ 60% | ≥ 60%
7 | O=C(NCCC1CCCCC1)c1cccc(Nc2ncc(-c3cccc(F)c3)cn2)c1 [Compound 80, N-(2-cyclohexylethyl)-3-{[5-(3-fluorophenyl)pyrimidin-2-yl]amino}benzamide] | ≥ 60% | ≥ 60%
